Experiments:
[1] = compound: CN(C)C(=N)NC(=N)N [Metformin] + NC(=O)Nc1cc(-c2cccc(F)c2)sc1C(=O)N[C@H]1CCCNC1 [AZD7762] (partner 0.2 µM); assay: relative viability (nuclei count vs DMSO), 5 days (fraction); higher = more cells survive
Method in brief: (§1)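 Dosing by pin tool came one day after lung cancer cell lines were seeded in 1536-well plates, using either one drug or a fixed anchor-drug dose plus five library-drug doses (not always all listed) in √10 steps. After 5 days, nuclei were counted on 4× images. Relative viability is treated-well nuclei count divided by vehicle-well nuclei count, and values are medians of duplicate plates.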

[2] = compound: CN(C)C(=N)NC(=N)N [Metformin] + O=C(CCCCCCC(=O)Nc1ccccc1)NO [Vorinostat] (partner 1 µM); assay: as above
Method in brief: as §1

Row | Cell Line | relative viability ([1]; first compound 10 µM) | relative viability ([1]; first compound 31.62 µM) | relative viability ([1]; first compound 100 µM) | relative viability ([1]; first compound 316.23 µM) | relative viability ([1]; first compound 1000 µM) | relative viability ([2]; first compound 10 µM) | relative viability ([2]; first compound 31.62 µM) | relative viability ([2]; first compound 100 µM) | relative viability ([2]; first compound 316.23 µM) | relative viability ([2]; first compound 1000 µM)
1 | NCI-H650 | 1.03 | 1.22 | 0.896 | 0.835 | 1.18 | 0.425 | 0.413 | 0.405 | 0.556 | 0.533
2 | NCI-H661 | – | – | – | – | – | 0.851 | 0.928 | 0.927 | 0.818 | 0.82
3 | NCI-H727 | 0.655 | 0.624 | 0.565 | – | 0.525 | 1.1 | 1.16 | 1.13 | – | 1.13
4 | NCI-H838 | 0.972 | 0.947 | 0.989 | 0.99 | 0.94 | 0.645 | 0.586 | 0.675 | 0.569 | 0.654
5 | NCI-H1355 | 0.735 | 0.656 | 0.694 | 0.732 | 0.72 | 0.597 | 0.522 | 0.632 | 0.589 | 0.609
6 | NCI-H1395 | 0.415 | 0.389 | 0.41 | 0.428 | 0.41 | 0.855 | 1.24 | 0.819 | 0.868 | 0.414
7 | NCI-H1437 | 1.17 | 1.1 | 1.07 | 1.09 | 0.551 | 1.1 | 1.34 | 0.993 | 0.961 | 1.01
8 | NCI-H1648 | – | 0.575 | 0.681 | 0.574 | 0.663 | – | 0.5 | 1.07 | 0.703 | 0.91
9 | NCI-H1650 | – | – | – | – | – | 0.492 | 0.675 | 0.799 | 0.529 | 0.52
10 | NCI-H1651 | 0.467 | 0.519 | 0.495 | 0.473 | 0.587 | 0.505 | 0.652 | 0.568 | 0.614 | 0.608
11 | NCI-H1666 | 0.897 | 0.993 | 0.98 | 0.869 | 1.1 | 0.979 | 0.946 | 1.01 | 1.06 | 1.1
12 | NCI-H1703 | 0.138 | 0.139 | 0.135 | 0.112 | 0.132 | – | – | – | – | –
13 | NCI-H1734 | 0.61 | 0.542 | 0.541 | 0.579 | 0.53 | 0.753 | 0.907 | 0.81 | 0.78 | 0.914
14 | NCI-H1755 | 0.361 | 0.379 | 0.408 | 0.345 | 0.408 | 0.579 | 0.629 | 0.711 | 0.657 | 0.763
15 | NCI-H1792 | 0.598 | 0.667 | 0.539 | 0.56 | 0.796 | – | – | – | – | –
16 | NCI-H1793 | 0.535 | 0.47 | 0.784 | 0.396 | 0.505 | 0.943 | 0.832 | 0.727 | 0.662 | 1.02
17 | NCI-H1915 | – | 0.713 | 0.686 | 0.669 | 0.707 | – | 0.499 | 0.498 | 0.46 | 0.517
18 | NCI-H1944 | 0.406 | 0.586 | 0.48 | 0.626 | 0.527 | 0.465 | 0.651 | 0.571 | 0.59 | 0.631
19 | NCI-H1975 | 0.772 | 0.734 | 0.681 | 0.689 | 0.637 | 0.688 | 0.738 | 0.705 | 0.645 | 0.729
20 | NCI-H1993 | 0.714 | 0.656 | 0.744 | 0.716 | 0.9 | 0.585 | 0.6 | 0.646 | 0.608 | 0.921

Row | Cell Line | relative viability ([1]; first compound 10 µM) | relative viability ([1]; first compound 31.62 µM) | relative viability ([1]; first compound 100 µM) | relative viability ([1]; first compound 316.23 µM) | relative viability ([1]; first compound 1000 µM) | relative viability ([2]; first compound 10 µM) | relative viability ([2]; first compound 31.62 µM) | relative viability ([2]; first compound 100 µM) | relative viability ([2]; first compound 316.23 µM) | relative viability ([2]; first compound 1000 µM)
21 | NCI-H2009 | – | – | – | – | – | 0.715 | 0.706 | 0.857 | 0.83 | 0.75
22 | NCI-H2023 | – | – | – | – | – | 0.292 | 0.712 | 0.354 | 0.496 | 0.38
23 | NCI-H2085 | 0.873 | 0.99 | 0.979 | 0.893 | 0.989 | 0.733 | 0.747 | 0.775 | 0.788 | 0.812
24 | NCI-H2087 | 1.3 | 1.21 | 1.12 | 1.11 | 1.39 | 0.595 | 0.657 | 0.637 | 0.567 | 0.671
25 | NCI-H2126 | 0.953 | 0.963 | 0.916 | 0.92 | 0.935 | 0.739 | 0.704 | 0.752 | 0.694 | 0.872
26 | NCI-H2170 | 0.74 | 0.836 | 0.869 | 0.745 | 0.913 | 0.55 | 0.777 | 0.79 | 0.813 | 0.795
27 | NCI-H2228 | – | – | – | – | – | 0.843 | 0.672 | 0.825 | 0.597 | 0.635
28 | NCI-H2342 | – | 0.441 | 0.366 | 0.46 | 0.386 | – | 0.868 | 0.837 | 0.745 | 0.853
29 | NCI-H2347 | 0.662 | 0.892 | 0.856 | 0.771 | 0.862 | 0.602 | 0.619 | 0.71 | 0.575 | 0.599
30 | NCI-H2405 | – | 0.866 | 0.831 | 0.722 | 0.515 | – | 0.991 | 1.03 | 1.02 | 0.587
31 | NCI-H3122 | 0.867 | 0.881 | 0.984 | 0.845 | 0.809 | 0.459 | 0.942 | 0.87 | 0.807 | 0.775
32 | PC-3 [JPC-3] | 0.916 | 1.12 | – | 0.798 | 0.651 | 0.737 | 0.664 | – | 0.85 | 0.554
33 | PC-14 | 0.31 | 0.343 | 0.383 | 0.304 | 0.392 | 0.618 | 0.598 | 0.567 | 0.415 | 0.533
34 | RERF-LC-KJ | 0.703 | 0.927 | 0.572 | 0.799 | 1 | 0.564 | 0.745 | 0.634 | 0.534 | 0.612
35 | SK-LU-1 | – | – | – | – | – | 0.723 | 0.645 | 0.759 | 0.667 | 0.766
36 | SK-MES-1 | – | – | – | – | – | 0.839 | 1.03 | 1.11 | 0.919 | 0.99
37 | SW 900 | 0.666 | 0.624 | – | 0.537 | 0.761 | 0.548 | 0.765 | – | 0.457 | 0.682
38 | SW 1573 | – | – | – | – | – | 0.724 | 0.722 | 0.68 | 0.701 | 0.755
39 | UMC-11 | – | – | – | – | – | 0.471 | 0.452 | 0.483 | 0.377 | 0.406

From the supplement of paper PMC10307832
